Results reported in PMC7721589, “Synthesis and structure-activity relationships for tetrahydroisoquinoline-based inhibitors of Mycobacterium tuberculosis” (Bioorganic & Medicinal Chemistry, 2020).
≈ marks a conversion by molar mass, not a printed value. Like-named read-outs stand apart in the source and are kept apart here.

Legend:
M.tb strain H37Rv [1] = experiment: MIC against M.tb H37Rv under aerobic (replicating; MABA) conditions; type: cell-based, Mycobacterium tuberculosis; settings: for MIC MABA: MIC90, Table 1; for MIC: Mycobacterium tuberculosis
M.tb strain H37Rv [2] = experiment: MIC against M.tb H37Rv under non-replicating (LORA) conditions; settings: for MIC LORA: MIC90, Table 1; for MIC (µg/mL) LORA: MIC90, Table 2
[3] = test system: Vero green monkey-derived epithelial kidney cells; experiment: Mammalian cytotoxicity in Vero cells; type: cell-based; settings: for IC50: Chlorocebus sabaeus
[4] = MIC90, Table 1, read-out: MIC MABA
[5] = MIC90, Table 2, read-out: MIC (µg/mL) MABA

Row | Molecule | MIC MABA (M.tb strain H37Rv [1]) [µg/mL] | MIC LORA (M.tb strain H37Rv [2]) [µg/mL] | IC50 VERO ([3]; Table 1) [µg/mL] | MIC (M.tb strain H37Rv [1]; [4]) [µg/mL] | IC50 ([3]; Table 1) [µg/mL] | melting point [°C] | MIC (M.tb strain H37Rv [1]; [5]) [µg/mL] | IC50 ([3]; Table 2) [µg/mL] | MIC (µg/mL) LORA (M.tb strain H37Rv [2]) [µg/mL]
1 | 2-((5-(2,4-Dichlorophenyl)pyridin-2-yl)methyl)-8-(4-methylpiperazin-1-yl)-1,2,3,4-tetrahydroisoquinoline [Compound 11] | 3.6 | 11 |  |  |  |  |  |  | 
2 | 2-((5-(4-Chlorophenyl)pyridin-2-yl)methyl)-8-(4-methoxypiperazin-1-yl)-5-methyl-1,2,3,4-tetrahydroisoquinoline [Compound 13] | 1.8 | 6.1 | 12 |  |  |  |  |  | 
3 | CSc1ccc(N2CCN(C)CC2)c2c1CCN(Cc1ccc(-c3ccc(Cl)cc3C)cn1)C2 [Compound 14, 2-((5-(4-Chloro-2-methylphenyl)pyridin-2-yl)methyl)-8-(4-methylpiperazin-1-yl)-5-(methylthio)-1,2,3,4-tetrahydroisoquinoline] |  | 6.0 (≈ 12.2 µM) |  | 3.4 (≈ 6.89 µM) | 11 (≈ 22.3 µM) | 65 to 68 |  |  | 
4 | Cc1cc(Cl)ccc1-c1ccc(CN2CCc3c(F)ccc(N4CCN(C)CC4)c3C2)nc1 [Compound 15, 2-((5-(4-Chloro-2-methylphenyl)pyridin-2-yl)methyl)-8-(4-methylpiperazin-1-yl)-5-fluoro-1,2,3,4-tetrahydroisoquinoline] |  | 6.1 (≈ 13.1 µM) |  | 3.8 (≈ 8.17 µM) | 24 (≈ 51.6 µM) |  |  |  | 
5 | CN1CCN(c2ccc(F)c3c2CN(Cc2ccc(-c4ccc(F)cc4F)cn2)CC3)CC1 [Compound 16, 2-((5-(2,4-Difluorophenyl)pyridin-2-yl)methyl)-5-fluoro-8-(4-methylpiperazin-1-yl)-1,2,3,4-tetrahydroisoquinoline] |  | 21 (≈ 46.4 µM) |  | 15 (≈ 33.1 µM) | 22 (≈ 48.6 µM) |  |  |  | 
6 | CN1CCN(c2ccc(F)c3c2CN(Cc2ccc(-c4ccc(Cl)cc4C(F)(F)F)cn2)CC3)CC1 [Compound 17, 2-((5-(4-Chloro-2-(trifluoromethyl)phenyl)pyridin-2-yl)methyl)-5-fluoro-8-(4-methylpiperazin-1-yl)-1,2,3,4-tetrahydroisoquinoline] |  | 5.4 (≈ 10.4 µM) |  | 2.3 (≈ 4.43 µM) | 11 (≈ 21.2 µM) | 102 to 104 |  |  | 
7 | Cc1cc(Cl)ccc1-c1ccc(C(=O)N2CCc3cccc(N4CCN(C)CC4)c3C2)nc1 [Compound 18, (5-(4-Chloro-2-methylphenyl)pyridin-2-yl)(8-(4-methylpiperazin-1-yl)-3,4-dihydroisoquinolin-2(1H)-yl)methanone] |  | 13 (≈ 28.2 µM) |  | 11 (≈ 23.9 µM) | 20 (≈ 43.4 µM) | 132 to 135 |  |  | 
8 | CN1CCN(c2cccc3c2CN(C(=O)c2ccc(-c4ccc(Cl)cc4)cn2)CC3)CC1 [Compound 19, (5-(4-Chlorophenyl)pyridin-2-yl)(8-(4-methylpiperazin-1-yl)-3,4-dihydroisoquinolin-2(1H)-yl)methanone] |  | 20 (≈ 44.7 µM) |  | 16 (≈ 35.8 µM) | 27 (≈ 60.4 µM) | 144 to 147 |  |  | 
9 | CN1CCN(c2cccc3c2CN(C(=O)c2ccc(-c4cccc(Cl)c4)cn2)CC3)CC1 [Compound 20, (5-(3-Chlorophenyl)pyridin-2-yl)(8-(4-methylpiperazin-1-yl)-3,4-dihydroisoquinolin-2(1H)-yl)methanone] |  | 11.3 (≈ 25.3 µM) |  | 15 (≈ 33.6 µM) | 24 (≈ 53.7 µM) | 105 to 108 |  |  | 
10 | COc1ccc(N2CCN(C)CC2)c2c1CCN(C(=O)c1ccc(-c3ccc(Cl)cc3)cn1)C2 [Compound 21, (5-(4-Chlorophenyl)pyridin-2-yl)(5-methoxy-8-(4-methylpiperazin-1-yl)-3,4-dihydroisoquinolin-2(1H)-yl)methanone] |  | 12 (≈ 25.2 µM) |  | 13 (≈ 27.3 µM) | 11 (≈ 23.1 µM) | 124 to 127 |  |  | 
11 | COc1ccc(N2CCN(C)CC2)c2c1CCN(C(=O)c1ccc(-c3ccc(Cl)cc3C)cn1)C2 [Compound 22, (5-(4-Chloro-2-methylphenyl)pyridin-2-yl)(5-methoxy-8-(4-methylpiperazin-1-yl)-3,4-dihydroisoquinolin-2(1H)-yl)methanone] |  | 8.0 (≈ 16.3 µM) |  | 8.9 (≈ 18.1 µM) | 22 (≈ 44.8 µM) | 125 to 128 |  |  | 
12 | Cc1cc(Cl)ccc1-c1ccc(NC(=O)N2CCc3cccc(N4CCN(C)CC4)c3C2)nc1 [Compound 24, N-(5-(4-Chloro-2-methylphenyl)pyridin-2-yl)-8-(4-methylpiperazin-1-yl)-3,4-dihydroisoquinoline-2(1H)-carboxamide] |  | 7.7 (≈ 16.2 µM) |  | 6.2 (≈ 13 µM) | 11 (≈ 23.1 µM) |  |  |  | 
13 | Cc1ccc(N2CCN(C)CC2)c2c1CCN(C(=O)Nc1ccc(-c3ccc(Cl)cc3Cl)cn1)C2 [Compound 25, N-(5-(2,4-Dichlorophenyl)pyridin-2-yl)-5-methyl-8-(4-methylpiperazin-1-yl)-3,4-dihydroisoquinoline-2(1H)-carboxamide] |  | 1.99 (≈ 3.9 µM) |  | 1.95 (≈ 3.82 µM) | 12 (≈ 23.5 µM) |  |  |  | 
14 | CCc1ccc(N2CCN(C)CC2)c2c1CCN(C(=O)Nc1ccc(-c3ccc(Cl)cc3C)cn1)C2 [Compound 28, N-(5-(4-Chloro-2-methylphenyl)pyridin-2-yl)-5-ethyl-8-(4-methylpiperazin-1-yl)-3,4-dihydroisoquinoline-2(1H)-carboxamide] |  | 1.8 (≈ 3.57 µM) |  | 2.9 (≈ 5.75 µM) | 12 (≈ 23.8 µM) | 180 to 182 |  |  | 
15 | Cc1cc(Cl)ccc1-c1ccc(NC(=O)N2CCc3c(Cc4ccccc4)ccc(N4CCN(C)CC4)c3C2)nc1 [Compound 29, 5-Benzyl-N-(5-(4-chloro-2-methylphenyl)pyridin-2-yl)-8-(4-methylpiperazin-1-yl)-3,4-dihydroisoquinoline-2(1H)-carboxamide] |  | 1.5 (≈ 2.65 µM) |  | 1.8 (≈ 3.18 µM) | 11 (≈ 19.4 µM) |  |  |  | 
16 | Cc1ccc(-c2ccc(NC(=O)N3CCc4c(Cc5ccccc5)ccc(N5CCN(C)CC5)c4C3)nc2)c(C)c1 [Compound 30, 5-Benzyl-N-(5-(2,4-dimethylphenyl)pyridin-2-yl)-8-(4-methylpiperazin-1-yl)-3,4-dihydroisoquinoline-2(1H)-carboxamide] |  | 1.9 (≈ 3.48 µM) |  | 2 (≈ 3.66 µM) | 11 (≈ 20.2 µM) | 94 to 97 |  |  | 
17 | COc1ccc(N2CCN(C)CC2)c2c1CCN(C(=O)Nc1ccc(-c3cncnc3)cn1)C2 [Compound 31, 5-Methoxy-8-(4-methylpiperazin-1-yl)-N-(5-(pyrimidin-5-yl)pyridin-2-yl)-3,4-dihydroisoquinoline-2(1H)-carboxamide] |  | >32 |  | > 32 | > 32 | 236 to 239 |  |  | 
18 | COc1ccc(N2CCN(C)CC2)c2c1CCN(C(=O)Nc1ccc(-c3cc(C(F)(F)F)cc(C(F)(F)F)c3)cn1)C2 [Compound 38, N-(5-(3,5-Bis(trifluoromethyl)phenyl)pyridin-2-yl)-5-methoxy-8-(4-methylpiperazin-1-yl)-3,4-dihydroisoquinoline-2(1H)-carboxamide] |  |  |  | 1.3 (≈ 2.19 µM) | 10 (≈ 16.8 µM) | 106 to 109 |  |  | 
19 | CSc1ccc(N2CCN(C)CC2)c2c1CCN(C(=O)Nc1ccc(-c3cc(C(F)(F)F)cc(C(F)(F)F)c3)cn1)C2 [Compound 39, N-(5-(3,5-Bis(trifluoromethyl)phenyl)pyridin-2-yl)-8-(4-methylpiperazin-1-yl)-5-(methylthio)-3,4-dihydroisoquinoline-2(1H)-carboxamide] |  | 4.0 (≈ 6.56 µM) |  | 3.6 (≈ 5.91 µM) | 20 (≈ 32.8 µM) |  |  |  | 
20 | CN1CCN(c2ccc(F)c3c2CN(C(=O)Nc2ccc(-c4ccc(Cl)c(C(F)(F)F)c4)cn2)CC3)CC1 [Compound 41, N-(5-(4-Chloro-3-(trifluoromethyl)phenyl)pyridin-2-yl)-5-fluoro-8-(4-methylpiperazin-1-yl)-3,4-dihydroisoquinoline-2(1H)-carboxamide] |  | 2.9 (≈ 5.29 µM) |  | 1.4 (≈ 2.55 µM) | 10 (≈ 18.2 µM) |  |  |  | 
21 | CN1CCN(c2cccc3c2CN(C(=O)Cc2ccc(-c4ccccc4)cn2)CC3)CC1 [Compound 44, 1-(8-(4-Methylpiperazin-1-yl)-3,4-dihydroisoquinolin-2(1H)-yl)-2-(5-phenylpyridin-2-yl)ethan-1-one] |  | >32 |  | > 32 | > 32 |  |  |  | 
22 | CN1CCN(c2cccc3c2CN(C(=O)Cc2ccc(-c4cccc(Cl)c4)cn2)CC3)CC1 [Compound 45, 2-(5-(3-Chlorophenyl)pyridin-2-yl)-1-(8-(4-methylpiperazin-1-yl)-3,4-dihydroisoquinolin-2(1H)-yl)ethan-1-one] |  | 21.7 (≈ 47.1 µM) |  | 15 (≈ 32.5 µM) | 25 (≈ 54.2 µM) |  |  |  | 
23 | CN1CCN(c2cccc3c2CN(C(=O)Cc2ccc(-c4ccc(OC(F)(F)F)cc4)cn2)CC3)CC1 [Compound 46, 1-(8-(4-Methylpiperazin-1-yl)-3,4-dihydroisoquinolin-2(1H)-yl)-2-(5-(4-(trifluoromethoxy)phenyl)pyridin-2-yl)ethan-1-one] |  | 12.4 (≈ 24.3 µM) |  | 13.7 (≈ 26.8 µM) | 20 (≈ 39.2 µM) |  |  |  | 
24 | Cc1cc(Cl)ccc1-c1ccc(CN2CCc3c(C)ccc(N4CCNCC4)c3C2)nc1 [Compound 52, 2-((5-(4-Chloro-2-methylphenyl)pyridin-2-yl)methyl)-5-methyl-8-(piperazin-1-yl)-1,2,3,4-tetrahydroisoquinoline] |  |  |  |  |  |  | 1.8 (≈ 4.03 µM) | 12 (≈ 26.8 µM) | 4.4 (≈ 9.84 µM)
25 | Cc1cc(Cl)ccc1-c1ccc(CN2CCc3c(C)ccc(N4CCOCC4)c3C2)nc1 [Compound 53, 4-(2-((5-(4-Chloro-2-methylphenyl)pyridin-2-yl)methyl)-5-methyl-1,2,3,4-tetrahydroisoquinolin-8-yl)morpholine] |  |  |  |  |  |  | 7.8 (≈ 17.4 µM) | > 32 | 12 (≈ 26.8 µM)
26 | Cc1cc(Cl)ccc1-c1ccc(CN2CCc3c(C)ccc(N4CCCCC4)c3C2)nc1 [Compound 55, 2-((5-(4-Chloro-2-methylphenyl)pyridin-2-yl)methyl)-5-methyl-8-(piperidin-1-yl)-1,2,3,4-tetrahydroisoquinoline] |  |  |  |  |  | 96 to 98 | 2.6 (≈ 5.83 µM) | > 32 | 
